From patent US4547513A, “2-Arylbenzothiazoline derivatives and their use in treating angina cordis” (Santen Pharmaceutical Co., Ltd., priority 1983, dated 1985)
Where a name gives a salt, the structure may show the parent alone.

Key:
[1] = system: platelet aggregation (rabbit platelet rich plasma); test: Platelet antiaggregatory activity in rabbit platelet rich plasma in vitro (Pharmacological test II); type: cell-based; conditions: Oryctolagus cuniculus, rabbit PRP, 1 minute preincubation at 37° C., induced by collagen (3μg/ml) or ADP (3μM), inducer not given, read-out: Antiaggregation activity IC50 (50% inhibition of the control response)
Method: Blood was obtained from an anesthetized rabbit using 0.1 volume of 3.8% sodium citrate as anticoagulant. Platelet rich plasma (PRP) was isolated by centrifugation at 650 rpm for 10 minutes at room temperature. After preincubation of PRP (0.25 ml) with various concentrations of the test compounds (14μl) for 1 minute at 37° C., collagen (3μg/ml: final concentration) or ADP (3μM: final concentration) was added to induce aggregation and the aggregation profiles were monitored by RIKADENKI six-channel aggregometer. The control experiment contained saline instead of the test compound.
The antiaggregatory activity was represented by the concentration of the test compounds which elicited 50% inhibition of the control response.

[2] = system: guineapig teania coli; test: Calciumantagonistic activity: inhibition of Ca++-evoked contraction of isolated guineapig teania coli (Pharmacological test I); type: cell-based; conditions: Cavia porcellus, 5 min, Ca++-free-high-K Krebs solution, 32° C., 5 minutes exposure before CaCl2 (3×10^-4M), read-out: Calciumantagonistic activity IC50 (50% inhibition of Ca++-evoked contraction)
Method: The action potentials on the smooth muscles of uterus, teania coli and portal vein depend on calcium ion, and therefore these smooth muscle preparations are useful for screening of calciumantagonists. We measured the calciumantagonistic activity of the compounds by the method using guineapig teania coli preparation.
Isolated guineapig teania coli was suspended in a 20 ml organ bath with Krebs solution at 32° C. and bubbled with 5% carbon dioxide in oxygen. After equilibration, the muscle was washed with Ca^++ -free Krebs solution, and when the muscle had relaxed to basal level, it was suspended in Ca^++ -free-high-K Krebs solution.
The muscule was exposed to the test compounds for 5 minutes before addition of CaCl2, and the contraction evoked by CaCl2 (3×10^-4M) was recorded isotonically. The calciumantagonistic activity was represented by the concentration of the test compound which elicited 50% inhibition of Ca^++ -evoked contraction (IC50).

| Structure (SMILES) | IC50 [1] | IC50 [2] |
| --- | --- | --- |
| COc1ccc(OCCCCN2CCC(C(=O)c3ccc(C)cc3)CC2)c(C2Sc3ccccc3N2C(C)=O)c1 (stereo not shown) [compound 3, 3-Acetyl-2-(5-methoxy-2-[4-[4-(4-methylbenzoyl)-1-piperidyl]butoxy]phenyl]benzothiazoline maleate] | 3.2 µM | – |
| COc1ccc(OCCCCN2CCC(C(=O)c3ccc(Cl)cc3)CC2)c(C2Sc3ccccc3N2C(C)=O)c1 (stereo not shown) [compound 4, 3-Acetyl-2-[2-[4-[4-(4-chlorobenzoyl)-1-piperidyl]butoxy]-5-methoxyphenyl]benzothiazoline maleate] | 3.2 µM | 8.7 µM |
| COc1ccc(OCCCCN2CCC(C(O)c3ccccc3)CC2)c(C2Sc3ccccc3N2C(C)=O)c1 (stereo not drawn) [compound 5, 3-Acetyl-2-[2-[4-[4-(α-hydroxybenzyl)-1-piperidyl]butoxy]5-methoxyphenyl]benzothiazoline maleate] | – | 8.2 µM |
| COc1ccc(OCCCCN2CCC(C(=O)c3ccc(F)cc3)CC2)c(C2Sc3ccccc3N2C(C)=O)c1 (stereo not shown) [compound 6, 3Acetyl-2-[2-[4-[4-(4-fluorobenzoyl)-1-piperidyl]butoxy]-5-methoxyphenyl]benzothiazoline maleate] | 0.29 µM | 1.6 µM |
| COc1ccc(OCCCCN2CCC(C(=O)Cc3ccccc3)CC2)c(C2Sc3ccccc3N2C(C)=O)c1 (stereo not shown) [compound 7, 3-Acetyl-2-[2-[4-(4-benzylcarbonyl-1piperidyl)butoxy]-5-methoxyphenyl]benzothiazoline maleate] | – | 3.2 µM |
